Assay results as given in patent US10405750B2, “Nonradiative voltage-sensitive dye for imaging neuronal action potential” (Washington University, priority 2014, dated 2019).

How the values were obtained:
[1] = commercially available dyes to be tested; cited from earlier work

SMILES	Abs.: peak absorption wavelength [1] [nm]	also measured
Nc1ccncc1 [4-AP, 4-am inopyridine]		PA waveforms (DPA-stained cortex) after 4-AP (mouse brains; mouse, in vivo): large-amplitude high-frequency waveforms consistent with epileptiform discharges; behavioural effect in mice (mouse brains; mouse, in vivo): signs of convulsions
CCN(CC)c1ccc2cc(/C=C/c3cc[n+](CC[N+](C)(C)C)cc3)ccc2c1.[Br-].[Br-] [Di-2-ANEPEQ]	517	
CCCCCCCCCCCCN(CCCCCCCCCCCC)c1ccc2cc(/C=C/c3cc[n+](CCC[N+](C)(C)C)cc3)ccc2c1.[Br-].[Br-] [Di-12-ANEPPQ]	519	
CCCCN1C(=O)/C(=C/C=C/C=C2/C=CN(CCCCS(=O)(=O)[O-])c3ccccc32)SC1=S.[Na+] [NK 2761]	716	
CCCCN(CCCC)c1ccc(/C=C/C=C/c2cc[n+](CCCCS(=O)(=O)[O-])cc2)cc1 [RH 160]	530	
CCCCN(CCCC)c1ccc(/C=C/C=C/C=C/c2cc[n+](CCCCS(=O)(=O)[O-])cc2)cc1 [RH 237]	528	
CCN(CC)c1ccc(/C=C/C=C/c2cc[n+](CCC[N+](CC)(CC)CC)cc2)cc1.[Br-].[Br-] [RH 414]	532	
CCN(CC)c1ccc(/C=C/C=C/c2cc[n+](CC(O)C[N+](C)(C)CCO)cc2)cc1.[Br-].[Br-] (stereo not shown) [RH 795]	530	
FC(F)OC(Cl)C(F)(F)F (stereo not shown) [isoflurane]		PA signal (DPA-stained cortex) after prolonged isoflurane (mouse brains; 5% isoflurane, prolonged exposure (30 minutes), after 4-AP): suppression of photoacoustic signal change
